{
  "source": "PubChem BioAssay AID232",
  "about": "(DTP/NCI, 2004)",
  "tested_on": "Gardner 6C3HED lymphosarcoma ip, C3AKF1 mice, survival T/C",
  "test": "NCI In Vivo Anticancer Drug Screen. Data for tumor model Lymphosarcoma Gardner 6C3HED (intraperitoneal) in C3AKF1 (CHKRF1) mice",
  "settings": "endpoint: survival time, mean or median, schedule: Q01DX010 (ip), vehicle: saline, higher = longer survival",
  "method": "The antitumor activity of compounds was measured in mice bearing transplantable tumors. Survival or tumor size were measured and the results are expressed as the measurement made in the treated group (T) divided by the measurement made in the vehicle treated control group (C). The tumor model used in this assay is Lymphosarcoma Gardner 6C3HED (intraperitoneal) in C3AKF1 (CHKRF1) mice",
  "note": "Inconclusive results and toxic doses are left out.",
  "data": [
    {"molecule": "CN(C)c1ccc(Nc2c3ccccc3nc3ccccc23)cc1", "values": [
      {"measurement": "T/C", "setting": "dose: 36.0 mg/kg/injection", "result": "107 % of control"},
      {"measurement": "T/C", "setting": "dose: 54.0 mg/kg/injection", "result": "185 % of control"},
      {"measurement": "T/C", "setting": "dose: 80.0 mg/kg/injection", "result": "240 % of control"},
      {"measurement": "T/C", "setting": "dose: 120.0 mg/kg/injection", "result": "214 % of control"}
    ]}
  ]
}
